Measurements: US20210255193A1, “LYSINE REACTIVE PROBES AND USES THEREOF” (The Scripps Research Institute, priority 2017, published 2021)

Assays:
Test in all cases: competitive isoTOP-ABPP
[1] = molecular target: T1, PSME3 Proteasome activator complex subunit 3 (Homo sapiens, UniProt P61289); assay type: binding; set-up: key to isoTOP-ABPP reactivity ratio at lysine P61289_K237: R = MS1 peak area ratio, DMSO (heavy) / compound-treated (light); key to isoTOP-ABPP reactivity ratio at lysine P61289_K12: R = MS1 peak area ratio, DMSO (heavy) / compound-treated (light); capped at 20; details: for isoTOP-ABPP ratio (R) at liganded lysine P61289_K237 / isoTOP-ABPP ratio (R) at liganded lysine P61289_K12: sol, 231
T1 construct: isoTOP-ABPP experiments performed in cell lysates (in vitro); endogenous in cells; host or cells: soluble proteome of human cancer cell lines (MDA-MB-231, Ramos, Jurkat)
Experimental: (§1) In vitro covalent fragment treatment for isoTOP-ABPP. All compounds were made up as solutions in DMSO (100×) and were used at a final concentration of 50 μM for activated esters and 100 μM for guanidinylating agents. For each profiling sample, 0.5 ml of lysate was treated with 5 μl of the 100× compound stock solution or 5 μl of DMSO. Samples were treated with activated esters for
(§2) STP-alkyne labeling and click chemistry. For concentration-dependent reactivity measurements by isoTOP-ABPP, 0.5 ml proteome aliquots were treated at ambient temperature with 1 mM STP-alkyne 1 (5 μl of 100 mM stock in DMSO) and 0.1 mM STP alkyne 1 (5 μl of 10 mM stock in DMSO), respectively. For competitive isoTOP-ABPP, after in vitro fragment treatment (detailed above), the samples were labeled for 1 h at ambient temperature with 0.1 mM STP-alkyne 1 (5 μl of 10 mM stock in DMSO). Samples were conjugated by copper-mediated azide-alkyne cycloaddition (CuAAC) to either the light (1 mM STP-alkyne or fragment treated) or heavy (0.1 mM STP-alkyne or DMSO treated) TEV tags (10 μl of 5 mM stocks in DMSO, final concentration=100 μM) using tris(2-carboxyethyl)phosphine hydrochloride
(§3) R value calculation and processing. The ratios of light and heavy MS1 peaks for each unique peptide were quantified with a CIMAGE software using default parameters (3 MS1 acquisitions per peak and signal to noise threshold set to 2.5). For reactivity measurements by isoTOP-ABPP, the R value was calculated from the ratio of MS1 peak areas, comparing the 1 mM STP alkyne sample (light TEV tag) with the 0.1 mM STP alkyne sample (heavy TEV tag). For competitive isoTOP-ABPP, the R value was calculated from the ratio of MS1 peak areas, comparing the DMSO treated sample (heavy TEV tag) with the compound treated sample (light TEV tag). […] Ratios for unique peptide entries are calculated for each experiment; overlapping peptides with the same modified lysine (for example, different charge states, MudPIT chromatographic steps or tryptic termini) are grouped together and the median ratio is reported as the final ratio (R). The peptide ratios reported by CIMAGE were further filtered to ensure the removal or correction of low-quality ratios in each individual data set. The quality filters applied were the following: removal of half tryptic peptides; for ratios with high standard deviations from the median (90% of the median or above) the lowest ratio was taken instead of the median; removal of peptides with R=20 and only a single MS2 event triggered during the elution of the parent ion; manual annotation of all the peptides with ratios of 20, removing any peptides with low quality elution profiles that remained after the previous curation steps (only done for competitive isoTOP-ABPP).
(§4) Cross-data processing for fragment screening. For compound treated samples, biological replicates of the same condition were averaged, if the standard deviation was below 60% of the mean; otherwise, for lysines with at least one R value <4 for a particular compound, the lowest value of the ratio set was taken. For lysines, where all R values for a particular compound were ≥4, the average was reported. For peptides containing several possible modified lysines, the lysine with the highest number of quantification events was used for analysis and the remaining, redundant peptides were reported as alternative modification sites. Peptides included in the aggregate dataset (those used for further bioinformatics and statistical analyses) were required to have been quantified in 2 experiments for competitive isoTOP-ABPP. Lysines were categorized as liganded, if they had at least one ratio R≥4 (hit fragments). For liganded lysines with R=20 for all liganding events, lysines were required to have been quantified with R=20 in two separate experiments and were further required to have been quantified with R<20 in one additional experiment.

[2] = molecular target: T2, NPEPPS Puromycin-sensitive aminopeptidase (Homo sapiens, UniProt P55786); assay type: binding; details: for isoTOP-ABPP ratio (R) at liganded lysine P55786_K712: sol, 231
T2 construct: isoTOP-ABPP experiments performed in cell lysates (in vitro); endogenous in cells; host or cells: soluble proteome of human cancer cell lines (MDA-MB-231, Ramos, Jurkat)
Summary of the method: (§5)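 Lysine engagement is reported as R, the MS1 peak-area ratio of heavy-tagged DMSO to light-tagged compound samples. Final fragment concentrations were 50 μM for activated esters and 100 μM for guanidinylating agents; STP-alkyne probe 0.1 mM, 1 h.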

[3] = molecular target: T3, PNPO Pyridoxine-5-phosphate oxidase (Homo sapiens, UniProt Q9NVS9); assay type: binding; details: for isoTOP-ABPP ratio (R) at liganded lysine Q9NVS9_K100: sol, 231
T3 construct: endogenous in cells; host or cells: MDA-MB-231 (soluble fraction of lysate)
T3 sequence (Q9NVS9 1-261): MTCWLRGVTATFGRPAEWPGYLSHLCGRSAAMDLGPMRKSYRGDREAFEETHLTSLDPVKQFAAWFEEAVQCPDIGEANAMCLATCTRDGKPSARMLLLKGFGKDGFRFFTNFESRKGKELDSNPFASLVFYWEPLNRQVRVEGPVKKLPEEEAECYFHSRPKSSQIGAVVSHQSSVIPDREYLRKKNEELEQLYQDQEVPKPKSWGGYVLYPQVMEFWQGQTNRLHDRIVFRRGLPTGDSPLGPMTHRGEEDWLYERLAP
Summary of the method: as §5

[4] = molecular target: T4, NONO Non-POU domain-containing octamer-binding protein (Homo sapiens, UniProt Q15233); details: 50 uM, in vitro
T4 construct: isoTOP-ABPP experiments performed in cell lysates (in vitro); endogenous in cells; host or cells: soluble proteome of human cancer cell lines (MDA-MB-231; Ramos and Jurkat also prepared)
T4 sequence (Q15233 1-471): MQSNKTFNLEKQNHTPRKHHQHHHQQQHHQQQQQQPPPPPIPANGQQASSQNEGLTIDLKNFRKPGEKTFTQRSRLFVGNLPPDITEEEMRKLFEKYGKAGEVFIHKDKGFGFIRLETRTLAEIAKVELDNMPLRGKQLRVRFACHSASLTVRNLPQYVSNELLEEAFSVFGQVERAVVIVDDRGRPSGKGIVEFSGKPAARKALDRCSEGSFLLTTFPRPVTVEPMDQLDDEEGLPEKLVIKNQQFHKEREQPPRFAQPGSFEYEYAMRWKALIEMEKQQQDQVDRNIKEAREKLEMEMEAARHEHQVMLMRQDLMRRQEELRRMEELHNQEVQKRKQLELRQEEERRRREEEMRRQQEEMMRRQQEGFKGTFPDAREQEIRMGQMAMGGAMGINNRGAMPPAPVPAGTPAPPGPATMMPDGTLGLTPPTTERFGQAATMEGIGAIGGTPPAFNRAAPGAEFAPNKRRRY
Summary of the method: as §5

ADK Adenosine kinase = molecular target: T5, ADK Adenosine kinase (Homo sapiens, UniProt P55263); assay type: binding; set-up: key to isoTOP-ABPP reactivity ratio at lysine P55263_K88: R = MS1 peak area ratio, DMSO (heavy) / compound-treated (light); details: for isoTOP-ABPP ratio (R) at liganded lysine P55263_K88: sol, 231
T5 construct: isoTOP-ABPP experiments performed in cell lysates (in vitro); endogenous in cells; host or cells: soluble proteome of human cancer cell lines (MDA-MB-231, Ramos, Jurkat)
T5 sequence (P55263 whole entry): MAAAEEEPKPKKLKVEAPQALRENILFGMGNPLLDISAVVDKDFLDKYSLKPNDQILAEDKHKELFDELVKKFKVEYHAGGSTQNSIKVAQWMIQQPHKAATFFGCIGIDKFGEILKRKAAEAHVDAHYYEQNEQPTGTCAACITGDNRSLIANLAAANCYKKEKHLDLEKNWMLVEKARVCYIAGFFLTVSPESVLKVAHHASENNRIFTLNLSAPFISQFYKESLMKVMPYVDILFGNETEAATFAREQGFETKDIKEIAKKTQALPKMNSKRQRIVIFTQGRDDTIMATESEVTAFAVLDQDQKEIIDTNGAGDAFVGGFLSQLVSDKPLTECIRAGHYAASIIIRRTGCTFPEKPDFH
Experimental: as §1, §2, §3, §4

[5] = molecular target: T6, DYNC1H1 Cytoplasmic dynein 1 heavy chain 1 (Homo sapiens, UniProt Q14204); assay type: binding; details: for isoTOP-ABPP ratio (R) at liganded lysine Q14204_K1649: 50 uM, in vitro, sol, 231
T6 construct: isoTOP-ABPP experiments performed in cell lysates (in vitro); endogenous in cells; host or cells: soluble proteome of human cancer cell lines (MDA-MB-231, Ramos, Jurkat)
T6 sequence (Q14204 whole entry): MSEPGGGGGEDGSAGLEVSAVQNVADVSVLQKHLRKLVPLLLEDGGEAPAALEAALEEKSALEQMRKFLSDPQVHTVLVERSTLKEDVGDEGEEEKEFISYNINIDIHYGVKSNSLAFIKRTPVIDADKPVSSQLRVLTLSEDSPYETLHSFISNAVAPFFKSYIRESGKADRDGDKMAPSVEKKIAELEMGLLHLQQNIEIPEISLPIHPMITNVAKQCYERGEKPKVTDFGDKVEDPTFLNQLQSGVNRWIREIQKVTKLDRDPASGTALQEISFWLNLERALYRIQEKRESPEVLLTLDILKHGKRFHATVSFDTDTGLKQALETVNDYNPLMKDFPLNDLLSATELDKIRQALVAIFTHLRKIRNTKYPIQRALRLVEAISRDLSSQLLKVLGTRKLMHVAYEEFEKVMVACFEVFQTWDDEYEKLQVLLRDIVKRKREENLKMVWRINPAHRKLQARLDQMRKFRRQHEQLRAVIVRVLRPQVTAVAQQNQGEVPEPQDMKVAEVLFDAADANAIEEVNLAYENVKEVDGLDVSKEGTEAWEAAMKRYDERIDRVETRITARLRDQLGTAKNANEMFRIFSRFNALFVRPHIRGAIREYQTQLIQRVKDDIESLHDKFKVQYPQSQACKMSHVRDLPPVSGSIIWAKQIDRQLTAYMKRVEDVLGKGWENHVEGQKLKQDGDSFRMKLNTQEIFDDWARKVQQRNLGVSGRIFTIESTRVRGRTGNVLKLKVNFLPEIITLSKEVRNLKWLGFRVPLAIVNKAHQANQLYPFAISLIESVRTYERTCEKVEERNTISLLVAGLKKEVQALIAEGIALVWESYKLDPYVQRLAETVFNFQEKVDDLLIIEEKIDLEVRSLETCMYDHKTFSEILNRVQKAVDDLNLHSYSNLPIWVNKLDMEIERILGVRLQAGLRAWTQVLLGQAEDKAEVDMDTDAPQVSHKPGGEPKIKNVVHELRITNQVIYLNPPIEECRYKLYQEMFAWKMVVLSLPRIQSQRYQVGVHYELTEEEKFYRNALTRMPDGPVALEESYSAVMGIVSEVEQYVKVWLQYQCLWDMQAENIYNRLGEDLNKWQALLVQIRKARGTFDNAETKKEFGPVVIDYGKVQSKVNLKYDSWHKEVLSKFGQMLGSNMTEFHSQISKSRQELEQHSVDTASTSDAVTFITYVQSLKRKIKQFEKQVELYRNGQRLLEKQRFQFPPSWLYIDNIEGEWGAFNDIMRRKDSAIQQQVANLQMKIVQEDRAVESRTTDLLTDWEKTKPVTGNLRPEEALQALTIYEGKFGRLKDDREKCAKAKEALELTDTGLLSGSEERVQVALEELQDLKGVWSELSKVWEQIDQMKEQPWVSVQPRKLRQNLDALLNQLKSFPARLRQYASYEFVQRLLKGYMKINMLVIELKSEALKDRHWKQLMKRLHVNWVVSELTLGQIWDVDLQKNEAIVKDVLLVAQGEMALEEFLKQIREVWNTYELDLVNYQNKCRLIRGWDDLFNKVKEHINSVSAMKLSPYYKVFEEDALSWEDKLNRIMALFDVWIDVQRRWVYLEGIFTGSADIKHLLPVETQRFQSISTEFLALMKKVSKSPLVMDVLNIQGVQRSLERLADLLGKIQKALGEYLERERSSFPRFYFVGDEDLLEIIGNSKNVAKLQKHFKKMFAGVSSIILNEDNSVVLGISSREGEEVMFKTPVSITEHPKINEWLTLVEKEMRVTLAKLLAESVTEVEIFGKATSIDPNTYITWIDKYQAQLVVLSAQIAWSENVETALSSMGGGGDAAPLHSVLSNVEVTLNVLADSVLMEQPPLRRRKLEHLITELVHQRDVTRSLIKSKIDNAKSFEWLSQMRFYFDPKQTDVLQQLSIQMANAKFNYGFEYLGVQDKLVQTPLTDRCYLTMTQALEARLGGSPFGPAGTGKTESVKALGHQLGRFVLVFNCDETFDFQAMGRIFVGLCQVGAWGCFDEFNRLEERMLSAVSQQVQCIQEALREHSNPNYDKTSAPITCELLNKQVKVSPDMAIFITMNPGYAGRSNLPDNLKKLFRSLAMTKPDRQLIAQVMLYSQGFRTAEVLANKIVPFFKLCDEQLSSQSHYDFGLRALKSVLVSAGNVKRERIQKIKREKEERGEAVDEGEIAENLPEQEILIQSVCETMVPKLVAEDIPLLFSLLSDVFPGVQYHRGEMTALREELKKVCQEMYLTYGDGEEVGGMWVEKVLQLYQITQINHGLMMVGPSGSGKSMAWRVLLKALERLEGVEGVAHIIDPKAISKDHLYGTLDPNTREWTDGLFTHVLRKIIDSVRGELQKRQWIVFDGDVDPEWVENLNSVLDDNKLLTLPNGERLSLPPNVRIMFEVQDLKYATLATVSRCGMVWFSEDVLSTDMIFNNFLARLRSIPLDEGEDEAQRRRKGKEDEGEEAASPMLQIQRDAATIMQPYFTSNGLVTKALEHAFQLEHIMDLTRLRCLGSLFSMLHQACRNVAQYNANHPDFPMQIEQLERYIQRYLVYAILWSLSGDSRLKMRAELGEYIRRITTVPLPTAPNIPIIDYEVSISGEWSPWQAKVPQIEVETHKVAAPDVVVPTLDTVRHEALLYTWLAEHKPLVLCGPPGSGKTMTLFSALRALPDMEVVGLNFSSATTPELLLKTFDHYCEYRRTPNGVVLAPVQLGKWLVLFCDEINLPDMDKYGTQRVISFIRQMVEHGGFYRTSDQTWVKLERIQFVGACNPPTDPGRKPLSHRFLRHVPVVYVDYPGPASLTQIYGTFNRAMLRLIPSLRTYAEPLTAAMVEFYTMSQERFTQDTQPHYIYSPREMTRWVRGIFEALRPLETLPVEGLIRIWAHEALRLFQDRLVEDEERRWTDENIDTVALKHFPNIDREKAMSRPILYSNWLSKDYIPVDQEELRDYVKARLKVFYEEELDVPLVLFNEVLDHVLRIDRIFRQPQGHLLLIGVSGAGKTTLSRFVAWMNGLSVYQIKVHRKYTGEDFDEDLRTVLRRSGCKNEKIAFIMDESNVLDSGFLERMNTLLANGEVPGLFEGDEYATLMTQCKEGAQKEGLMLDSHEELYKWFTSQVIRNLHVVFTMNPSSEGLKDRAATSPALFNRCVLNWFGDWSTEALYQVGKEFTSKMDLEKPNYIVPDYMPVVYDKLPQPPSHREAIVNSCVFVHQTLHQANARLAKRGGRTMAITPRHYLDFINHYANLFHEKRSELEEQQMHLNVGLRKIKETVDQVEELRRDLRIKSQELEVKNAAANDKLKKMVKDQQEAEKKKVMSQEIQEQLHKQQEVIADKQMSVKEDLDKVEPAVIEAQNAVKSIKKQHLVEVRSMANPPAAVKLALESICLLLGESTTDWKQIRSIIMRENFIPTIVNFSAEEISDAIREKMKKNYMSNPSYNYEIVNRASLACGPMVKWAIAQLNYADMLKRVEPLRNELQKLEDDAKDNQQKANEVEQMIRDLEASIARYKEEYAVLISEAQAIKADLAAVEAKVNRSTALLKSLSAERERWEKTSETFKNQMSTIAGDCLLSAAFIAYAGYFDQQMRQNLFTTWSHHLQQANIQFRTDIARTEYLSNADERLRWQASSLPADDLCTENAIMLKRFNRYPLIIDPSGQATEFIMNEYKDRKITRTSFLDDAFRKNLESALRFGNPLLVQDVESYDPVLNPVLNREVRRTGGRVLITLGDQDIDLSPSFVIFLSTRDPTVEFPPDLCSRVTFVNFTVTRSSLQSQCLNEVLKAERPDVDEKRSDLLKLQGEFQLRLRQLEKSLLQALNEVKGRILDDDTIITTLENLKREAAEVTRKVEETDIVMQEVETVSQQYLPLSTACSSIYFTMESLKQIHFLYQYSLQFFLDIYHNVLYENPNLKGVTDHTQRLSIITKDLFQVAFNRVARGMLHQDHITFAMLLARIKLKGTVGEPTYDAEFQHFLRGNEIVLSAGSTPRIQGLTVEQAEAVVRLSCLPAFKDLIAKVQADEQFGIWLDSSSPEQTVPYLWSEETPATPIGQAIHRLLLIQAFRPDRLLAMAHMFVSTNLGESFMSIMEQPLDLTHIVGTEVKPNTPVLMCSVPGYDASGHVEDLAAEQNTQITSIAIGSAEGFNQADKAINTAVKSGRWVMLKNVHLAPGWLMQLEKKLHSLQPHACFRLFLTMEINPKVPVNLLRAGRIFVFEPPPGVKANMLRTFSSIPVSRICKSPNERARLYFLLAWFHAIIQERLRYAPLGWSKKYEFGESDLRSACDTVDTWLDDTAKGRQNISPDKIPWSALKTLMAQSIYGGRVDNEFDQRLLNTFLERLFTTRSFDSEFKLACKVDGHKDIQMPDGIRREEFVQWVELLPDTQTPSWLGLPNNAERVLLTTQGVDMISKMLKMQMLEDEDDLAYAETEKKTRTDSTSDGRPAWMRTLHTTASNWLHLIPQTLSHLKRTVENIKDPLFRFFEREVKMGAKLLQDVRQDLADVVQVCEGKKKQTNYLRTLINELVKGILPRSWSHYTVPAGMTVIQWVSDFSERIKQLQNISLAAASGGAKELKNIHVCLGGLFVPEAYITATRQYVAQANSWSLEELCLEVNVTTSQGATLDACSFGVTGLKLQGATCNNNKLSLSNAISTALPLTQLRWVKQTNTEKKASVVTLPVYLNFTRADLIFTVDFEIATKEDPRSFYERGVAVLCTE
Summary of the method: as §5

Row | Compound | isoTOP-ABPP ratio (R) at liganded lysine P61289_K237 ([1]; 50 uM, in vitro) | isoTOP-ABPP ratio (R) at liganded lysine Q14204_K1649 [5] | isoTOP-ABPP ratio (R) at liganded lysine P55786_K712 ([2]; 50 uM, in vitro) | isoTOP-ABPP ratio (R) at liganded lysine Q9NVS9_K100 ([3]; 50 uM, in vitro) | isoTOP-ABPP ratio (R) at liganded lysine P55263_K88 (ADK Adenosine kinase; 50 uM, in vitro) | isoTOP-ABPP ratio (R) at liganded lysine P61289_K12 ([1]; 50 uM, in vitro) | isoTOP-ABPP ratio, lysine P61289_K237 ([1]; 50 uM_231_sol_in vitro) | isoTOP-ABPP ratio, lysine Q14204_K1649 ([5]; 50 uM_231_sol_in vitro) | isoTOP-ABPP ratio, lysine P55786_K712 ([2]; 50 uM_231_sol_in vitro) | isoTOP-ABPP ratio, lysine Q9NVS9_K100 ([3]; 50 uM_231_sol_in vitro) | isoTOP-ABPP ratio, lysine P55263_K88 (ADK Adenosine kinase; 50 uM_231_sol_in vitro) | further results
1 | O=C(Oc1ccc([N+](=O)[O-])cc1[N+](=O)[O-])c1cc(C(F)(F)F)cc(C(F)(F)F)c1 [fragment 31, 2,4-Dinitrophenyl 3,5-bis(trifluoromethyl)benzoate] | – | – | – | – | – | – | – | – | – | – | – | isoTOP-ABPP reactivity ratio at lysine P61289_K12 ([1]; 50 uM, 231 sol, in vitro): 1.1; isoTOP-ABPP reactivity ratio at lysine P61289_K237 ([1]; 50 uM, 231 sol, in vitro): 1.1; isoTOP-ABPP reactivity ratio at lysine P55786_K712 ([2]; 50 uM, 231 sol, in vitro): 1.1; isoTOP-ABPP reactivity ratio at lysine Q9NVS9_K100 ([3]; 50 uM, 231 sol, in vitro): 1.0; isoTOP-ABPP reactivity ratio at lysine Q15233_K467 ([4]; 231 sol): 1.3; isoTOP-ABPP reactivity ratio at lysine P55263_K88 (ADK Adenosine kinase; 50 uM, 231 sol, in vitro): 0.7
2 | O=C(CCc1coc2cc(F)ccc2c1=O)Oc1ccc([N+](=O)[O-])cc1[N+](=O)[O-] [fragment 36, 2,4-Dinitrophenyl 3-(7-fluoro-4-oxo-4H-chromen-3-yl)propanoate] | 1.4 | 1.2 | 2.7 | 1.0 | 20.0 | – | – | – | – | – | – | –
3 | O=C(Oc1ccc([N+](=O)[O-])cc1[N+](=O)[O-])c1ccc(-c2ccccc2)cc1 [fragment 37, 2,4-Dinitrophenyl [1,1′-biphenyl]-4-carboxylate] | 1.0 | – | 0.9 | 0.9 | 0.8 | 0.9 | – | – | – | – | – | isoTOP-ABPP ratio (R) at liganded lysine Q15233_K467 ([4]; sol, 231): 0.8
4 | O=C(CC12CC3CC(CC(C3)C1)C2)Oc1ccc([N+](=O)[O-])cc1[N+](=O)[O-] [fragment 38, 2,4-Dinitrophenyl 2-(adamantan-1-yl)acetate] | – | 1.0 | 1.0 | 0.9 | 0.9 | 1.9 | – | – | – | – | – | –
5 | O=C(Oc1ccc([N+](=O)[O-])cc1[N+](=O)[O-])c1ccc(Oc2ccccc2)cc1 [fragment 39, 2,4-Dinitrophenyl 4-phenoxybenzoate] | 0.9 | 1.0 | 0.9 | 0.9 | 0.9 | 0.9 | – | – | – | – | – | –
6 | CC(C)(C)OC(=O)NCCCC(=O)Oc1ccc([N+](=O)[O-])cc1[N+](=O)[O-] [fragment 41, 2,4-Dinitrophenyl 4-((tert-butoxycarbonyl)amino)butanoate] | 2.2 | 1.0 | 1.5 | 1.0 | 1.5 | 3.5 | – | – | – | – | – | –
7 | O=C(CCc1ccc2c(c1)OCO2)Oc1ccc([N+](=O)[O-])cc1[N+](=O)[O-] [fragment 45, 2,4-Dinitrophenyl 3-(benzo[d][1,3]dioxol-5-yl)propanoate] | – | – | – | – | – | – | 1.6 | 1.0 | 1.3 | 1.0 | 1.3 | isoTOP-ABPP ratio, lysine P61289_K12 ([1]; 50 uM_231_sol_in vitro): 2.0
8 | O=C(Oc1c(F)c(F)c(C(F)(F)F)c(F)c1F)c1cc(C(F)(F)F)cc(C(F)(F)F)c1 [fragment 47, 2,3,5,6-Tetrafluoro-4-(trifluoromethyl)phenyl 3,5-bis(trifluoromethyl)benzoate] | – | – | – | – | – | – | 0.9 | 0.9 | 1.0 | 0.9 | 0.8 | isoTOP-ABPP ratio, lysine P61289_K12 ([1]; 50 uM_231_sol_in vitro): 1.1
9 | CC(C)(C)OC(=O)N=C(NC(=O)OC(C)(C)C)n1cccn1 [fragment 50, reference compound] | – | – | – | – | – | – | – | – | – | – | – | isoTOP-ABPP ratio, lysine P61289_K12 ([1]; 100 uM_231_sol_in vitro): 0.7; isoTOP-ABPP ratio, lysine P61289_K237 ([1]; 100 uM_231_sol_in vitro): 0.9; isoTOP-ABPP ratio, lysine Q14204_K1649 ([5]; 100 uM_231_sol_in vitro): 1.3; isoTOP-ABPP ratio, lysine P55786_K712 ([2]; 100 uM_231_sol_in vitro): 1.6; isoTOP-ABPP ratio, lysine Q9NVS9_K100 ([3]; 100 uM_231_sol_in vitro): 1.1; isoTOP-ABPP ratio, lysine P55263_K88 (ADK Adenosine kinase; 100 uM_231_sol_in vitro): 1.0
10 | NC(=O)c1cc(C(F)(F)F)cc(C(F)(F)F)c1 [fragment 51, reference compound] | – | – | – | – | – | – | 0.7 | 0.7 | 1.0 | 0.9 | 0.8 | –
